Laboratory results from patent publication US12458021B2, “Microbiocidal derivatives” (SYNGENTA CROP PROTECTION AG, priority 2019, dated 2025).

How the values were obtained:
[1] = tested on: Blumeria graminis f. sp. tritici (Erysiphe graminis f. sp. tritici); experiment: Blumeria graminis f. sp. tritici / wheat / leaf disc preventative (powdery mildew on wheat); format: in vivo; details: foliar, wheat leaf segments cv. Kanzler, inoculated 1 day after application, assessed 6-8 days after application, read-out: control of Blumeria graminis f. sp. tritici (percent disease control compared to untreated)
Text: Example B4: Blumeria graminis f. sp. tritici (Erysiphe graminis f. sp. tritici)/Wheat/Leaf Disc Preventative (Powdery Mildew on Wheat) Wheat leaf segments cv. Kanzler are placed on agar in a multiwell plate (24-well format) and sprayed with the formulated test compound diluted in water. The leaf disks are inoculated by shaking powdery mildew infected plants above the test plates 1 day after application. […] […]-192.

[2] = tested on: Magnaporthe grisea (Pyricularia oryzae); experiment: whole plant or invertebrate; format: in vivo; details: foliar, read-out: control of Magnaporthe grisea (percent disease control compared to untreated)
[3] = tested on: Mycosphaerella graminicola (Septoria tritici); experiment: Mycosphaerella graminicola (Septoria tritici) / liquid culture (Septoria blotch); format: cell-based; details: Zymoseptoria tritici, PDB potato dextrose broth, 24° C., 4-5 days after application, read-out: control of Mycosphaerella graminicola (inhibition of growth, photometric)
Experimental: (§1) Example B15: Mycosphaerella graminicola (Septoria tritici)/Liquid Culture (Septoria Blotch) Conidia of the fungus from cryogenic storage are directly mixed into nutrient broth (PDB potato dextrose broth). After placing a (DMSO) solution of test compound into a microtiter plate (96-well format), the nutrient broth containing the fungal spores is added. The test plates are incubated at 24° C. and the inhibition of growth is determined photometrically 4-5 days after application. […] […]-191.

[4] = tested on: Monographella nivalis (Microdochium nivale); experiment: Monographella nivalis (Microdochium nivale) / liquid culture (foot rot cereals); format: cell-based; details: PDB potato dextrose broth, 24° C., 4-5 days after application, read-out: control of Monographella nivalis (inhibition of growth, photometric)
Experimental: Example B7: Monographella nivalis (Microdochium nivale)/Liquid Culture (Foot Rot Cereals) Conidia of the fungus from cryogenic storage are directly mixed into nutrient broth (PDB potato dextrose broth). After placing a (DMSO) solution of test compound into a microtiter plate (96-well format), the nutrient broth containing the fungal spores is added. The test plates are incubated at 24° C. and the inhibition of growth is determined photometrically 4-5 days after application. […] […]-190.

[5] = tested on: Glomerella lagenarium (Colletotrichum lagenarium); experiment: Glomerella lagenarium (Colletotrichum lagenarium) / liquid culture (anthracnose); format: cell-based; details: Colletotrichum orbiculare, PDB potato dextrose broth, 24° C., 3-4 days after application, read-out: control of Glomerella lagenarium (inhibition of growth, photometric)
Experimental: as §1, with “B3: Glomerella lagenarium (Colletotrichum lagenarium)/Liquid” for “B15: Mycosphaerella graminicola (Septoria tritici)/Liquid”, “(Anthracnose)” for “(Septoria Blotch)”, “measured” for “determined”, “3-4” for “4-5”

Row | SMILES | pest or weed control at 200 ppm [1] [%] | pest or weed control at 200 ppm [2] [%] | inhibition at 20 ppm [3] [%] | inhibition at 20 ppm [4] [%] | inhibition at 20 ppm [5] [%]
1 | COc1cnc(Nc2cc(F)nc(F)c2)nc1C(=O)NCCC(C)C [Compound P-9, 2-[(2,6-difluoro-4-pyridyl)amino]-N-isopentyl-5-methoxy-pyrimidine-4-carboxamide] | ≥ 80 | – | – | – | –
2 | COc1cnc(Nc2cc(F)nc(F)c2)nc1C(=O)NC1CCC1(C)C (stereo not shown) [Compound P-11, 2-[(2,6-difluoro-4-pyridyl)amino]-N-(2,2-dimethylcyclobutyl)-5-methoxy-pyrimidine-4-carboxamide] | ≥ 80 | – | – | – | –
3 | COc1ccc(Nc2cc(F)nc(F)c2)nc1C(=O)NCC(C)c1ccccc1 (stereo not shown) [Compound P-32, 6-[(2,6-difluoro-4-pyridyl)amino]-3-methoxy-N-(2-phenylpropyl)pyridine-2-carboxamide] | – | ≥ 80 | ≥ 80 | – | –
4 | COc1ccc(Nc2cnsc2)nc1C(=O)NC1CCC12CCCC2 (stereo not shown) [Compound P-33, 6-(isothiazol-4-ylamino)-3-methoxy-N-spiro[3.4]octan-3-yl-pyridine-2-carboxamide] | – | ≥ 80 | ≥ 80 | ≥ 80 | ≥ 80
5 | COc1ccc(Nc2cc(F)nc(F)c2)nc1C(=O)NCC#CC(C)(C)C [Compound P-35, 6-[(2,6-difluoro-4-pyridyl)amino]-N-(4,4-dimethylpent-2-ynyl)-3-methoxy-pyridine-2-carboxamide] | – | ≥ 80 | ≥ 80 | – | –
6 | COc1ccc(Nc2cc(F)nc(F)c2)nc1C(=O)NCc1cncn1Cc1ccccc1 [Compound P-48, N-[(3-benzylimidazol-4-yl)methyl]-6-[(2,6-difluoro-4-pyridyl)amino]-3-methoxy-pyridine-2-carboxamide] | ≥ 80 | – | – | – | –
7 | COc1ccc(Nc2cc(F)nc(F)c2)nc1C(=O)NCC1(C(F)(F)F)CC1 [Compound P-49, 6-[(2,6-difluoro-4-pyridyl)amino]-3-methoxy-N-[[1-(trifluoromethyl)cyclopropyl]methyl]pyridine-2-carboxamide] | – | ≥ 80 | – | – | –
8 | COc1ccc(Nc2cc(F)nc(F)c2)nc1C(=O)NC1COC(C2CC2)C1 (stereo not shown) [Compound P-50, N-(5-cyclopropyltetrahydrofuran-3-yl)-6-[(2,6-difluoro-4-pyridyl)amino]-3-methoxy-pyridine-2-carboxamide] | ≥ 80 | – | – | – | –
9 | COc1ccc(Nc2cc(F)nc(F)c2)nc1C(=O)NCc1nn(C)c2ncccc12 [Compound P-51, 6-[(2,6-difluoro-4-pyridyl)amino]-3-methoxy-N-[(1-methylpyrazolo[3,4-b]pyridin-3-yl)methyl]pyridine-2-carboxamide] | ≥ 80 | – | – | – | –
10 | COc1ccc(Nc2cc(F)nc(F)c2)nc1C(=O)NCC1(C)CCOC1 (stereo not shown) [Compound P-53, 6-[(2,6-difluoro-4-pyridyl)amino]-3-methoxy-N-[(3-methyltetrahydrofuran-3-yl)methyl]pyridine-2-carboxamide] | ≥ 80 | – | – | – | –
11 | COc1ccc(Nc2cc(F)nc(F)c2)nc1C(=O)NC1C2CCOC2C1(C)C (stereo not shown) [Compound P-54, 6-[(2,6-difluoro-4-pyridyl)amino]-N-(7,7-dimethyl-2-oxabicyclo[3.2.0]heptan-6-yl)-3-methoxy-pyridine-2-carboxamide] | ≥ 80 | – | – | – | –
12 | COc1ccc(Nc2cc(F)cc(F)c2)nc1C(=O)NC1CC2CCOC21 (stereo not shown) [Compound P-59, 6-(3,5-difluoroanilino)-3-methoxy-N-(2-oxabicyclo[3.2.0]heptan-7-yl)pyridine-2-carboxamide] | ≥ 80 | – | ≥ 80 | – | ≥ 80
13 | COc1ccc(Nc2cc(F)cc(F)c2)nc1C(=O)NC1CC2(COC2)C1 [Compound P-64, 6-(3,5-difluoroanilino)-3-methoxy-N-(2-oxaspiro[3.3]heptan-6-yl)pyridine-2-carboxamide] | ≥ 80 | – | – | – | –
14 | COc1ccc(Nc2cc(F)cc(F)c2)nc1C(=O)NCc1cnn(C)n1 [Compound P-69, 6-(3,5-difluoroanilino)-3-methoxy-N-[(2-methyltriazol-4-yl)methyl]pyridine-2-carboxamide] | – | ≥ 80 | – | – | –
15 | COc1ccc(Nc2cc(F)cc(F)c2)nc1C(=O)NC(C)c1ncc(C)o1 (stereo not shown) [Compound P-71, 6-(3,5-difluoroanilino)-3-methoxy-N-[1-(5-methyloxazol-2-yl)ethyl]pyridine-2-carboxamide] | – | ≥ 80 | ≥ 80 | – | ≥ 80
16 | CCON=C(CNC(=O)c1nc(Nc2cc(F)cc(F)c2)ccc1OC)c1ncc(Cl)cc1Cl [Compound P-75, N-[2-(3,5-dichloro-2-pyridyl)-2-ethoxyimino-ethyl]-6-(3,5-difluoroanilino)-3-methoxy-pyridine-2-carboxamide] | – | – | ≥ 80 | ≥ 80 | ≥ 80
17 | COc1ccc(Nc2cc(F)nc(F)c2)nc1C(=O)NC1(c2ccc(F)cc2)CC1 [Compound P-89, 6-[(2,6-difluoro-4-pyridyl)amino]-N-[1-(4-fluorophenyl)cyclopropyl]-3-methoxy-pyridine-2-carboxamide] | – | ≥ 80 | – | – | –
18 | COc1ccc(Nc2cc(F)nc(F)c2)nc1C(=O)NC1(Cc2ccc(Cl)cc2)CC1 [Compound P-90, N-[1-[(4-chlorophenyl)methyl]cyclopropyl]-6-[(2,6-difluoro-4-pyridyl)amino]-3-methoxy-pyridine-2-carboxamide] | – | ≥ 80 | – | – | ≥ 80
19 | CC(C)(C)CNC(=O)c1cccc(Nc2cc(F)cc(F)c2)n1 [Compound P-111, 6-(3,5-difluoroanilino)-N-(2,2-dimethylpropyl)pyridine-2-carboxamide] | – | ≥ 80 | ≥ 80 | ≥ 80 | ≥ 80
20 | COc1ccc(Nc2cc(F)cc(F)c2)nc1C(=O)NC1(C#N)CSC1 [Compound P-121, N-(3-cyanothietan-3-yl)-6-(3,5-difluoroanilino)-3-methoxy-pyridine-2-carboxamide] | ≥ 80 | – | ≥ 80 | ≥ 80 | ≥ 80
21 | COc1ccc(Nc2cc(F)nc(F)c2)nc1C(=O)NC1(C)CCOC1 (stereo not shown) [Compound P-124, 6-[(2,6-difluoro-4-pyridyl)amino]-3-methoxy-N-(3-methyltetrahydrofuran-3-yl)pyridine-2-carboxamide] | ≥ 80 | – | – | – | –
22 | COc1ccc(Nc2cc(F)nc(F)c2)nc1C(=O)NC1(C#N)CCC1 [Compound P-126, N-(1-cyanocyclobutyl)-6-[(2,6-difluoro-4-pyridyl)amino]-3-methoxy-pyridine-2-carboxamide] | – | ≥ 80 | – | – | –
23 | COc1ccc(Nc2cc(F)cc(F)c2)nc1C(=O)NC1(C#N)CCC1 [Compound P-129, N-(1-cyanocyclobutyl)-6-(3,5-difluoroanilino)-3-methoxy-pyridine-2-carboxamide] | – | ≥ 80 | ≥ 80 | – | ≥ 80
24 | COc1ccc(Nc2ccc(F)cc2)nc1C(=O)NCC(C)(C)C [Compound P-133, N-(2,2-dimethylpropyl)-6-(4-fluoroanilino)-3-methoxy-pyridine-2-carboxamide] | – | – | ≥ 80 | ≥ 80 | ≥ 80
25 | COc1ccc(Nc2cccc(C)c2)nc1C(=O)NCC(C)(C)C [Compound P-140, N-(2,2-dimethylpropyl)-3-methoxy-6-(3-methylanilino)pyridine-2-carboxamide] | – | – | ≥ 80 | ≥ 80 | ≥ 80
26 | COc1ccc(Nc2ccc(Cl)c(F)c2)nc1C(=O)NCC(C)(C)C [Compound P-144, 6-(4-chloro-3-fluoro-anilino)-N-(2,2-dimethylpropyl)-3-methoxy-pyridine-2-carboxamide] | – | ≥ 80 | ≥ 80 | ≥ 80 | ≥ 80
27 | COc1ccc(Nc2ccc3c(c2)OCO3)nc1C(=O)NC(C)(C)C [Compound P-159, 6-(1,3-benzodioxo1-5-ylamino)-N-tert-butyl-3-methoxy-pyridine-2-carboxamide] | – | ≥ 80 | – | – | –
28 | COc1ccc(Nc2cncnc2)nc1C(=O)NC(C)(C)C [Compound P-166, N-tert-butyl-3-methoxy-6-(pyrimidin-5-ylamino)pyridine-2-carboxamide] | ≥ 80 | – | – | – | –
